Reference: US5916906A, “Compositions comprising nicotinylalanine and an inhibitor of glycine conjugation or vitamin B6” (priority 1997, dated 1999)
Where “and” joins values, the source holds several entries; their conditions need not be identical. Equal values may be shown once.

Columns and labels:
Format in all cases: in vivo, C57BL/6 mice
LP-BM5 MuLV Retrovirus [1] = assay: MAIDS model: disease stage score, attainment of disease score 4 (Kaplan-Meier) and survival up to 28 weeks
From the text: Each value represents the mean and one standard standard deviation for groups of surviving mice (at least 4 mice per group) at termination of the study, following 28 weeks post-inoculation by LP-BM5 virus.
(§1) Each group consisted of 8 mice, except for the virus-negative control group which consisted of 6 mice.
as §1
(§2) This study was designed to determine whether nicotinylalanine (NAL) alone or in combination with acetylsalicylic acid (ASA) will prevent or alter the course of murine retroviral-induced immunodeficiency disease, MAIDS, in C57BL/6 female mice. The LP-BM5 MuLV virus used for these studies was prepared from chronically infected SC-1 cells (ATCC Cat. No. CRL-1404), as described by Yetter R. A. et al., J. Exp. Med., 168, 623-635, 1988. […] The MAIDS model is well characterized and reproducible in the laboratory, as described by Mosier D. E. et al., J. Exp. Med. 161, 766-784, 1985.
(§3) Measures of disease progression followed the methods developed by Eiseman et al., 1991 (Ibid). Disease scores 0 through +4 are based upon body weight gain and palpable alterations in the size of lymph nodes and spleen. Severity of disease is scored as follows: 0.5, increased body weight and variably detected increase in size of any one lymph node or spleen; +1, clearly detectable increase in the size of a lymph node and spleen; +2, readily detectable (greater than 0.3 cm in diameter) increased size in more than one lymph node and, in particular, enlargement of subcervical, brachial or axillary nodes; +3, increased size of all palpable nodes and palpable splenomegaly (≥0.3 grams); +4, advanced disease with extensive splenomegaly (>1.0 grams) and lymphadenopathy.
(§4) Specific pathogen free, female C57BL/6 mice (5 weeks of age) were purchased from Charles River Breeding Laboratories. All mice were allowed one week to acclimate to housing facilities prior to randomization for study. Animals were marked for identification and placed in microisolator cages with identifying cards (5 mice/cage), where autoclaved food and water were provided ad libitum.
(§5) NAL and ASA were formulated under sterile conditions according to preformulation methods outlined in Remington's Pharmaceutical Sciences Handbook, 18th Edition, 1990, ibid). NAL and ASA were dissolved in sterile phosphate-buffered normal saline solution (i.e., vehicle; Biofluids Inc., Lot 413054), adjusted to between pH 7.2 to 7.4 with […], sterilized by filtration through 0.2 μm bottle-type filters, and dispersed into sterile glass vials, sealed and capped (Wheaton Inc.).
(§6) Except for Group 6 (which began treatment 2 weeks after virus inoculation),test drug injections began 1 day after virus infection and continued every day except weekends (i.e., 5 times per week).

LP-BM5 MuLV Retrovirus [2] = assay: MAIDS model, interim sacrifices: body weight, disease score, spleen weight; conditions: treatment from day 1: NAL 400 mg/kg i.p., ASA 20 mg/kg i.p., AZT 1 mg/ml in drink water; for Body Wt. / Spleen Wt.: individual mouse; for Disease Score: scores 0 through +4, individual mouse
Method: as §2, §3, §4, §5, §6
(§7) Disease progression was monitored by measuring serum IgM levels by ELISA on all animals at monthly intervals during the course of disease. Three mice per group were randomly selected and sacrificed at monthly intervals (end of month one through four) of the study. Disease scores for each animal were recorded weekly based upon palpation of lymph nodes and spleen. Complete gross necropsies were performed on these euthanized animals and the ratio of recorded spleen to body weights was an additional indicator of diseases progression. […] Infection was quantified by ecotropic virus XC plaque assays of spleens removed from the interim sacrificed animals.

[3] = Plasma nicotinamide levels in LP-BM5 infected mice (HPLC); conditions: NAL 400 mg/kg, ASA 20 mg/kg; for Ratio of plasma nicotinamide mean to placebo (PBS Control, Group 1): AZT as in Table 4; for Mean Plasma Nicotinamide Level: virus-positive, ~24 h after last treatment, AZT printed 1 mg/kg, mean ± SD
Method: Mice were sacrificed on Tuesdays at monthly intervals after
inoculation, approximately 24 hours after their last treatment.
At time of sacrifice, blood was collected by cardiac puncture and stored
Results are expressed as mean concentrations ± standard deviation in

[4] = Hematocrit of LP-BM5 infected mice (hematopoietic toxicity); conditions: for Mean Hematocrit: virus-positive, NAL 400 mg/kg, ASA 20 mg/kg, AZT printed 1 mg/kg
Method: as §7, with “animals. The study was to be terminated when mice were either dead or disease scores were +4 in more than 50% of the vehicle-treated MAIDS controls (Group 1), which occurred at 19 weeks post-inoculation of the virus pool. However, as the remaining mice in Group 1 were slow to progress towards more severe disease (FIG. 5) or death (FIG. 6), the study was extended until a termination date of 28 weeks post-inoculation.” for “animals.”
Mice were maintained through the fifth month post virus inoculation until

Cc1cn([C@H]2C[C@H](N=[N+]=[N-])[C@@H](CO)O2)c(=O)[nH]c1=O [AZT, 3'azido-3'deoxythymidine, reference compound]
Disease score of mice that died prior to termination (LP-BM5 MuLV Retrovirus [1]; Groups 4 and 7): 0.5
Survival vs LP-BM5 virus-positive control (log-rank p) (LP-BM5 MuLV Retrovirus [1]; treatment from day 1, FIG. 6): 0.0308
Body Wt. (LP-BM5 MuLV Retrovirus [2]; 1 month postinoculation): 21.1 Grams and 20.9 Grams and 19.6 Grams
Spleen Wt. (LP-BM5 MuLV Retrovirus [2]; 1 month postinoculation): 0.097 Grams and 0.108 Grams and 0.096 Grams
Disease Score (LP-BM5 MuLV Retrovirus [2]; 1 month postinoculation): 0 and 0.5
Body Wt. (LP-BM5 MuLV Retrovirus [2]; 2 months postinoculation): 20.9 Grams and 20.0 Grams and 22.6 Grams
Spleen Wt. (LP-BM5 MuLV Retrovirus [2]; 2 months postinoculation): 0.090 Grams and 0.104 Grams and 0.086 Grams
Disease Score (LP-BM5 MuLV Retrovirus [2]; 2 months postinoculation): 0
Body Wt. (LP-BM5 MuLV Retrovirus [2]; 3 months postinoculation): 23.8 Grams and 23.5 Grams and 25.4 Grams
Spleen Wt. (LP-BM5 MuLV Retrovirus [2]; 3 months postinoculation): 0.118 Grams and 0.114 Grams and 0.112 Grams
Disease Score (LP-BM5 MuLV Retrovirus [2]; 3 months postinoculation): 0.5
Body Wt. (LP-BM5 MuLV Retrovirus [2]; 4 months postinoculation): 25.0 Grams and 21.1 Grams and 28.6 Grams
Spleen Wt. (LP-BM5 MuLV Retrovirus [2]; 4 months postinoculation): 0.262 Grams and 0.086 Grams and 0.150 Grams
Disease Score (LP-BM5 MuLV Retrovirus [2]; 4 months postinoculation): 2 and 0 and 1
Ratio of plasma nicotinamide mean to placebo (PBS Control, Group 1) ([3]; Month 1): 1.59
Mean Plasma Nicotinamide Level ([3]; Month 1): 5.1 ± 0.6 nmol/mL
Ratio of plasma nicotinamide mean to placebo (PBS Control, Group 1) ([3]; Month 2): 1.54
Mean Plasma Nicotinamide Level ([3]; Month 2): 6.0 ± 0.4 nmol/mL
Ratio of plasma nicotinamide mean to placebo (PBS Control, Group 1) ([3]; Month 3): 2.26
Mean Plasma Nicotinamide Level ([3]; Month 3): 5.2 ± 3.0 nmol/mL
Mean Plasma Nicotinamide Level ([3]; Month 4): 5.8 ± 0.4 nmol/mL
Mean Hematocrit ([4]; Month 1 (10 bled)): 41.7 ± 4.0%
Mean Hematocrit ([4]; Month 2 (10 bled)): 42.7 ± 2.4%
Mean Hematocrit ([4]; Month 3 (7 bled)): 41.9 ± 1.7%
Mean Hematocrit ([4]; Month 4 (11 bled)): 42.6 ± 3.0%
Mean hematocrit over the four months sampled ([4]; NAL plus AZT (Group 5), AZT alone (Group 7)): ~42.6%
Hematopoietic toxicity ([4]; one-month interim assessment, AZT in drinking water): hematopoietic toxicity was already manifest
